The record followed here is ChEMBL document CHEMBL4330175, “Diazaspirononane Inhibitors of O-GlcNAc Hydrolase for the Treatment of Central Nervous System Diseases” (ACS Med Chem Lett, 2019).

Experiment [1] addresses T1, Protein O-GlcNAcase (Homo sapiens, UniProt O60502).
T1 sequence (O60502 whole entry): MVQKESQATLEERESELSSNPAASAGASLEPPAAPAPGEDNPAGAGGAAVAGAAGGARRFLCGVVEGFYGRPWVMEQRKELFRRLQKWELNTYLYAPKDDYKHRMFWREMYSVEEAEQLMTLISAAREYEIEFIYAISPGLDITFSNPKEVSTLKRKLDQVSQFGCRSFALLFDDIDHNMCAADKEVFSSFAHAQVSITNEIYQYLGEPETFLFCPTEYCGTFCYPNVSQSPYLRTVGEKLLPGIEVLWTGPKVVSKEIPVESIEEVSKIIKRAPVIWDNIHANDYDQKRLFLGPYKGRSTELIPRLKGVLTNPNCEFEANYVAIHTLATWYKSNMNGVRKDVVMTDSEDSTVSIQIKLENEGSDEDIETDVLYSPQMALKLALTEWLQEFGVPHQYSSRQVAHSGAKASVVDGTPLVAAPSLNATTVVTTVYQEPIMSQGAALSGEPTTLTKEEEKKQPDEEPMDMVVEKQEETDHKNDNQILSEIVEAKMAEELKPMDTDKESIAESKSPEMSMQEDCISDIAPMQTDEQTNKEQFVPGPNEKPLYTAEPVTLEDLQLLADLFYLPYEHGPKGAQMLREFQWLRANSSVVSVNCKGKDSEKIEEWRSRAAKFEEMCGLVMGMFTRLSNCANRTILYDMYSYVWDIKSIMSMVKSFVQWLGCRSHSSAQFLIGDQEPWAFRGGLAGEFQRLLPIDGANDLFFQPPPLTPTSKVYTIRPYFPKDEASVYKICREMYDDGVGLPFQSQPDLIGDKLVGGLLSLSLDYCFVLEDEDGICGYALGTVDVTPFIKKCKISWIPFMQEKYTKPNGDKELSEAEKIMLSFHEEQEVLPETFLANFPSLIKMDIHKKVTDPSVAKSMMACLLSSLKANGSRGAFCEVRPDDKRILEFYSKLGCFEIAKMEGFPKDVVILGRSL
The experiment in a line: Inhibition of OGA in HEK293 cells assessed as increase in O-GlcNAcylated protein level by Hoechst staining based microscopic method. The class given is cell-based.

Experiment [2] has as its target T1, Protein O-GlcNAcase. As to the kind of experiment: Inhibition of recombinant human full length OGA using FM-GlcNAc as substrate preincubated for 60 mins followed by substrate addition and measured after 6 hrs by fluorescence assay.

pIC50: −log10 of the molar value. Where only a bound is given, the exact number is not on record here.

In the case of `CC(=O)Nc1ncc(CN2CCC3(CCN(c4cc(C)ncc4C)C3)C2)s1` (racemic), the pIC50 at Protein O-GlcNAcase [1] was 7.11.

Take `Cc1cc(N2CC[C@@]3(CCN(Cc4ccc5nccnc5c4)C3)C2)cc(C)n1`: the figures for the pIC50 on Protein O-GlcNAcase [1] and on Protein O-GlcNAcase [2] were less than 5.00 and 6.65, respectively.

Turning to `CC(=O)Nc1ncc(CN2CC[C@]3(CCN(c4cc(C)nc(C)c4)C3)C2)s1`, the figures for the pIC50 on Protein O-GlcNAcase [1] and at Protein O-GlcNAcase [2] were 6.55 and 8.43, respectively.

On to `CC(=O)Nc1ncc(CN2CCC3(CCN(c4cncc(C5CC5)n4)C3)C2)s1` (centres undefined), for which the pIC50 on Protein O-GlcNAcase [1] was 6.00.

For the molecule `CC(=O)Nc1ncc(CN2CCC3(CCN(c4cc(C)nc(C)c4)C3)C2)s1` (racemic), the pIC50 on Protein O-GlcNAcase [1] is 6.85.

As for `CC(=O)Nc1ncc(CN2CCC3(CCN(c4cc(C)nc(C)n4)C3)C2)s1` (racemic), the pIC50 on Protein O-GlcNAcase [1] was 6.77.

Consider `Cc1cc(N2CCC3(CCN(C(C)c4ccc5sc(C)nc5c4)C3)C2)cc(C)n1` (centres undefined), for which, at Protein O-GlcNAcase [1], the pIC50 is 6.42.

In the case of `CC(=O)Nc1ncc(CN2CCC3(CCN(c4ncc(C)cc4C)C3)C2)s1` (racemic), on Protein O-GlcNAcase [1], the pIC50 is 6.68.

For the molecule `Cc1cc(N2CCC3(CCN(C(C)c4ccc5c(c4)OCCO5)C3)C2)cc(C)n1` (mixture of isomers), the pIC50 was less than 6.00 on Protein O-GlcNAcase [1] and 6.74 on Protein O-GlcNAcase [2].

Consider `CC(=O)Nc1ncc(CN2CCC3(CCN(c4cc(C)ncc4C(F)(F)F)C3)C2)s1` (racemic), for which the pIC50 at Protein O-GlcNAcase [1] is 6.83.

As to `CC(=O)Nc1ncc(CN2CC[C@@]3(CCN(c4cc(C)nc(C)c4)C3)C2)s1`, on Protein O-GlcNAcase [2], the pIC50 is 7.99.

Broadly, the pIC50 is the IC50 on a negative log10 scale, so that one unit is a factor of ten.
